The target of this assay is T1, human mAChR M4 (Homo sapiens, UniProt P08173).
T1 construct: expressed in transfected cells
T1 sequence (P08173 1-479): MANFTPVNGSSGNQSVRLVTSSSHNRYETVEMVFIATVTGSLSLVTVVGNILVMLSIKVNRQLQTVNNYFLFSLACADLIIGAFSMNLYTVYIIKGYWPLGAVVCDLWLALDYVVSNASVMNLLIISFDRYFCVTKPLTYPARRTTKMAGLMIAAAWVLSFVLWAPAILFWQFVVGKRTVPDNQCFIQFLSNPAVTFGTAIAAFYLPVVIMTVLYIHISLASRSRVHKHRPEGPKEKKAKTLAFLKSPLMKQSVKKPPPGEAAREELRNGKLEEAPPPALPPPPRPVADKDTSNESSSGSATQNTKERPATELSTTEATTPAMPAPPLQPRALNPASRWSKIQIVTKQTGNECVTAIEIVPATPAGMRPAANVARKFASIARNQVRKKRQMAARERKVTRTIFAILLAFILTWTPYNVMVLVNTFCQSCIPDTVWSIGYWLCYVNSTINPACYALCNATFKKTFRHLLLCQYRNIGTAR
The assay is described as follows: mAChR M4 cell-based functional assay (calcium mobilization, CHO-K1 hM4-Gqi5 cells). Conditions: for Emax at 30 µM: CHO-K1, % ACh maximum at 30 μM, human M4; for pEC50: positive allosteric modulator activity, increase in the EC20 acetylcholine response, CHO-K1 hM4-Gqi5 cells, read-out: Human M4 EC50; for Emax: CHO-K1. In outline: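 Fluorescent calcium read-out (Fluo-4 AM, FDSS, 1 Hz) in hM4-Gqi5 CHO-K1 cells, 11-point 1:3 compound series. Agonism scored on compound addition, PAM activity as increase of the 144 s EC20 acetylcholine response, antagonism as decrease of the 230 s EC80 response; four-parameter logistic fits give EC50 and Emax.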
On the technique in general: Calcium assays in cells follow changes in intracellular calcium, usually with a dye or a luminescent sensor.

In patent US20250230155A1 (Vanderbilt University, priority 2021, published 2025) one finds Emax and EC50 data, which are given here for 27 molecules.

pEC50: −log10 of the molar value.

Consider `COCCOc1cnc2c(c1)CN(c1ncc(C#N)cc1C)CC2` [Example 434, 6-(3-(2-methoxyethoxy)-7,8-dihydro-1,6-naphthyridin-6(5H)-yl)-5-methylnicotinonitrile], for which the Emax – broadly, the size of the effect at its maximum, as opposed to the concentration needed – at 30 µM came out at 102% and the pEC50 (usually the EC50 on a negative log10 scale, so that one unit is a factor of ten) is 6.02.

For `Cc1cc(C(=O)NCc2ccno2)cnc1N1CCc2ncccc2C1` [compound 123, 6-(7,8-dihydro-5H-1,6-naphthyridin-6-yl)-N-(isoxazol-5-ylmethyl)-5-methyl-pyridine-3-carboxamide], the Emax at 30 µM was found to be 82% and the pEC50 is no more than 5.00. On to `Cc1cc(C#N)nnc1N1CCc2ncc(-n3cccn3)cc2C1` [Example 400, 6-(3-(1H-pyrazol-1-yl)-7,8-dihydro-1,6-naphthyridin-6(5H)-yl)-5-methylpyridazine-3-carbonitrile], for which the Emax at 30 µM is 56% and the pEC50 is 5.98. As to `COC(=O)c1cnc(N2CCc3ncc(Br)cc3C2)c(C)c1` [compound 133, methyl 6-(3-bromo-7,8-dihydro-5H-1,6-naphthyridin-6-yl)-5-methyl-pyridine-3-carboxylate], the maximum response (Emax) was 100% and the pEC50 is 6.80.

Regarding `Cc1cc(C#N)cnc1N1CCc2ncc(N3CCCn4nccc43)cc2C1` [Example 314, 6-(3-(6,7-dihydropyrazolo[1,5-a]pyrimidin-4(5H)-yl)-7,8-dihydro-1,6-naphthyridin-6(5H)-yl)-5-methylnicotinonitrile], the Emax at 30 µM is 94% and the pEC50 is 7.59.

For the molecule `COCc1nc(Cl)c(C)c(N2CCc3ncc(-c4cncs4)cc3C2)n1` [compound 217, 5-(6-(6-chloro-2-(methoxymethyl)-5-methylpyrimidin-4-yl)-5,6,7,8-tetrahydro-1,6-naphthyridin-3-yl)thiazole], the maximum response (Emax) at 30 µM is 96% and the pEC50 was 6.27. `COc1ccc(-c2cnc3c(c2)CN(c2nc(C)nc(C)c2C)CC3)cn1` [compound 230, 3-(6-methoxypyridin-3-yl)-6-(2,5,6-trimethylpyrimidin-4-yl)-5,6,7,8-tetrahydro-1,6-naphthyridine]: the Emax at 30 µM is 65% and the pEC50 was 6.55.

As for `Cc1cc(C(=O)N2CC(C)(O)C2)nnc1N1CCc2ncc(N3CCO[C@H](C)C3)cc2C1` [Example 540, (R)-(3-hydroxy-3-methylazetidin-1-yl)(5-methyl-6-(3-(2-methylmorpholino)-7,8-dihydro-1,6-naphthyridin-6(5H)-yl)pyridazin-3-yl)methanone], the Emax at 30 µM stood at 100% and the pEC50 was 6.57. `Cc1cc(C(=O)NCc2ccc(-n3ccnc3)nc2)cnc1N1CCc2ncc(-c3cn(C)nc3C)cc2C1` [Example 478, N-((6-(1H-imidazol-1-yl)pyridin-3-yl)methyl)-6-(3-(1,3-dimethyl-1H-pyrazol-4-yl)-7,8-dihydro-1,6-naphthyridin-6(5/)-yl)-5-methylnicotinamide]: the Emax at 30 µM turned out to be 50% and the pEC50 is 6.42. Turning to `CCn1cc(-c2cnc3c(c2)CN(c2ncc(C#N)cc2C)CC3)cn1` [compound 105, 6-[3-(1-ethylpyrazol-4-yl)-7,8-dihydro-5H-1,6-naphthyridin-6-yl]-5-methyl-pyridine-3-carbonitrile], the Emax at 30 µM is 98% and the pEC50 was 6.58.

Take `Clc1nc2c(c(N3CCc4ncc(C5CC5)cc4C3)n1)COC2` [compound 287, 2-chloro-4-(3-cyclopropyl-7,8-dihydro-1,6-naphthyridin-6(5H)-yl)-5,7-dihydrofuro[3,4-d]pyrimidine]: the pEC50 is 6.23. For `Cc1c(C#N)nnc(N2CCc3ncc(-c4cnn(CC(C)(C)O)c4)cc3C2)c1C` [Example 327, 6-(3-(1-(2-hydroxy-2-methylpropyl)-1H-pyrazol-4-yl)-7,8-dihydro-1,6-naphthyridin-6(5H)-yl)-4,5-dimethylpyridazine-3-carbonitrile], the Emax at 30 µM was 68% and the pEC50 is 5.72.

In the case of `Cc1cc(C(=O)NCC(C)C)cnc1N1CCc2ncc(-c3cn(C)nc3C)cc2C1` [Example 460, 6-(3-(1,3-dimethyl-1H-pyrazol-4-yl)-7,8-dihydro-1,6-naphthyridin-6(5H)-yl)-N-isobutyl-5-methylnicotinamide], the Emax at 30 µM was 71% and the pEC50 is 5.74.

For the molecule `Cc1c(C#N)nnc(N2CCc3ncc(-c4cccnc4C(F)(F)F)cc3C2)c1C` [compound 50, 4,5-dimethyl-6-[3-[2-(trifluoromethyl)-3-pyridyl]-7,8-dihydro-5H-1,6-naphthyridin-6-yl]pyridazine-3-carbonitrile], the Emax at 30 µM is 68% and the pEC50 is 5.75. Consider `Cc1cc(C(=O)NCc2ccncc2)nnc1N1CCc2ncc(CC(F)(F)F)cc2C1` [Example 581, 5-methyl-N-(pyridin-4-ylmethyl)-6-(3-(2,2,2-trifluoroethyl)-7,8-dihydro-1,6-naphthyridin-6(5H)-yl)pyridazine-3-carboxamide], for which the Emax at 30 µM came to 96% and the pEC50 was 7.22. The like results for `Cc1cc(C#N)nnc1N1CCc2ncc(Oc3cccc(F)c3F)cc2C1` [Example 356, 6-(3-(2,3-difluorophenoxy)-7,8-dihydro-1,6-naphthyridin-6(5H)-yl)-5-methylpyridazine-3-carbonitrile] were, in that order, 83% and 6.56. Consider `Cc1cc(C(=O)NCc2cnc3ccccc3c2)cnc1N1CCc2ncc(C(F)(F)F)cc2C1` [Example 446, 5-methyl-N-(quinolin-3-ylmethyl)-6-(3-(trifluoromethyl)-7,8-dihydro-1,6-naphthyridin-6(5H)-yl)nicotinamide], for which the Emax at 30 µM came out at 87% and the pEC50 was 5.94.

Consider `CCOc1nc(N2CCc3ncc(C(F)(F)F)cc3C2)c(C)cc1C#N` [Example 373, 2-ethoxy-5-methyl-6-(3-(trifluoromethyl)-7,8-dihydro-1,6-naphthyridin-6(5H)-yl)nicotinonitrile], for which the Emax at 30 µM turned out to be 64% and the pEC50 was 5.76.

Consider `Cc1nc(C)c(C)c(N2CCc3ncc(Oc4ccc(F)cc4F)cc3C2)n1` [compound 262, 3-(2,4-difluorophenoxy)-6-(2,5,6-trimethylpyrimidin-4-yl)-5,6,7,8-tetrahydro-1,6-naphthyridine], for which the Emax at 30 µM was 77% and the pEC50 is 6.56. On to `Cc1ccncc1-c1cnc2c(c1)CN(c1nnc(C#N)cc1C)CC2` [Example 322, 5-methyl-6-(3-(4-methylpyridin-3-yl)-7,8-dihydro-1,6-naphthyridin-6(5H)-yl)pyridazine-3-carbonitrile], for which the Emax at 30 µM was determined as 86% and the pEC50 is 5.98. As for `Cc1cc(C(=O)N2CC(C)C2)nnc1N1CCc2ncc(N3CCCn4nccc43)cc2C1` [Example 549, (6-(3-(6,7-dihydropyrazolo[1,5-a]pyrimidin-4(5H)-yl)-7,8-dihydro-1,6-naphthyridin-6(5H)-yl)-5-methylpyridazin-3-yl)(3-methylazetidin-1-yl)methanone], the Emax at 30 µM was found to be 120% and the pEC50 was 7.25. `Cc1cncc(-c2cnc3c(c2)CN(c2nnc(C#N)c(C)c2C)CC3)c1` [Example 435, 4,5-dimethyl-6-(3-(5-methylpyridin-3-yl)-7,8-dihydro-1,6-naphthyridin-6(5H)-yl)pyridazine-3-carbonitrile]: the Emax at 30 µM amounted to 61% and the pEC50 is 6.04.

On to `Cc1cc(C(=O)N2CC(CO)(CO)C2)nnc1N1CCc2ncc(CC(F)(F)F)cc2C1` [Example 584, (3,3-bis(hydroxymethyl)azetidin-1-yl)(5-methyl-6-(3-(2,2,2-trifluoroethyl)-7,8-dihydro-1,6-naphthyridin-6(5H)-yl)pyridazin-3-yl)methanone], for which the Emax at 30 µM came out at 91% and the pEC50 is 6.27. For the molecule `Cc1cc(C(=O)Nc2ccncc2)cnc1N1CCc2ncccc2C1` [compound 121, 6-(7,8-dihydro-5H-1,6-naphthyridin-6-yl)-5-methyl-N-(4-pyridyl)pyridine-3-carboxamide], the Emax at 30 µM was 70% and the pEC50 is 6.26. With `Cc1cc(C#N)cnc1N1CCc2ncc(C(F)F)cc2C1` [Example 307, 6-(3-(difluoromethyl)-7,8-dihydro-1,6-naphthyridin-6(5H)-yl)-5-methylnicotinonitrile], the Emax worked out at 100% and the pEC50 was 6.79. In the case of `COCc1nc(Cl)c(C)c(N2CCc3ncc(C(F)(F)F)cc3C2)n1` [compound 214, 6-(6-chloro-2-(methoxymethyl)-5-methylpyrimidin-4-yl)-3-(trifluoromethyl)-5,6,7,8-tetrahydro-1,6-naphthyridine], the Emax at 30 µM was found to be 103% and the pEC50 was 6.15.

Turning to `Cc1cc(Nc2cnc3c(c2)CN(c2nnc(C#N)c(C)c2C)CC3)c(F)cn1` [Example 614, 6-(3-((5-fluoro-2-methylpyridin-4-yl)amino)-7,8-dihydro-1,6-naphthyridin-6(5H)-yl)-4,5-dimethylpyridazine-3-carbonitrile], the Emax at 30 µM was determined as 92% and the pEC50 was 7.92.
